In article PMC10354055, “An optimized Nurr1 agonist provides disease-modifying effects in Parkinson’s disease models” (Nature Communications, 2023):
Several values for one entry are separate records, joined by “and”; a condition that tells them apart may be missing. Equal entries are not always repeated.

Experiments:
[1] = tested on: MN9D cells; experiment: Cytotoxicity, LDH release, MPP+-treated MN9D cells; type: cell-based, mouse
Protocol: Cells were transfected with Nurr1 subcloned into pcDNA3.1 vector[23] for Nurr1 overexpression (OE). […] Nurr1 OE or KD by transfection was analyzed by Western blot.
Cellular oxidative stress was detected using the DCFDA Cellular ROS Assay Kit (Abcam) according to the manufacturer’s protocol. Briefly, cells seeded in black clear bottom 96 well plate were stained with DCFDA solution (20 µM) for 45 min at 37 °C. […] Cytotoxicity was determined by measuring lactate dehydrogenase (LDH) release into the culture medium using a LDH cytotoxicity detection kit (Roche)[33]. Absorbance was measured at 490 nm with a microplate reader and cytotoxicity was calculated as a percentage (%) relative to 1% TritonX-100 control. Cell viability was determined using 3-(4,5-dimethylthiazol-2-yl)-2,5-diphenyltetrazolium bromide (MTT) as previously described. Briefly, cells were incubated with 5 mg/ml of MTT (Sigma-Aldrich) solution for 3.5 h at 37 °C. MTT formazan crystals were dissolved in 10 times the volume of MTT solvent (4 mM HCl and 0.1% Nonidet P-40 in isopropanol) and the absorbance from the generated blue formazan was measured at 570 nm after 15 min incubation at room temperature. Cell viability was calculated as a percentage (%) of MTT reduction relative to vehicle control.

[2] = tested on: N27-A cells; experiment: Mitochondrial activity assay, Seahorse XFp, N27-A cells; type: cell-based, rat; set-up: Seahorse time trace (OCR): unit not given here; details: for OCR changes after FCCP injection: MPP+ co-treatment, individual replicates (Supplementary Figure S1o); for Seahorse time trace (OCR) / ATP turnover: replicates; for ATP turnover: Fig. S1n, with MPP+
Protocol: Mitochondrial activity was measured using the Seahorse XFp analyzer (Agilent Technologies) according to the manufacturer’s instruction. Briefly, cells were plated onto wells of a XFp cell culture miniplate and incubated in a 37 °C incubator overnight. The assay was performed after cells were equilibrated for 1 h in XF assay medium supplemented with 10 mM D-glucose, 5 mM sodium pyruvate, and 2 mM glutamax in a non-CO2 incubator. Mitochondrial activity was monitored through sequential injections of 1 μM oligomycin, 2 μM carbonyl cyanide-4 (trifluoromethoxy) phenylhydrazone (FCCP) and 0.5 μM rotenone/antimycin A to calculate basal respiration (= baseline oxygen consumption rate (OCR)−rotenone/antimycin A OCR), maximal respiration (= FCCP OCR−rotenone/antimycin A OCR), ATP turnover (= baseline OCR−oligomycin OCR), and OCR changes after FCCP injection (= FCCP OCR−oligomycin OCR). Each plotted value was normalized to total protein quantified using a Bradford protein assay (Bio-Rad) and analyzed using the Seahorse WAVE Desktop software (Agilent Technologies).

[3] = tested on: HeLa cells; experiment: Lysosomal pH detection, LysoSensor, HeLa cells; type: cell-based
Protocol: (§1) Lysosomal pH was detected as previously described. Briefly, after incubation in EBSS containing BafA1 (10 nM), CQ (20 µM), or 4A7C-301 (1 µM) for 6 h, HeLa and N27-A cells were treated with LysoSensor™ Yellow/Blue DND-160 (5 µM; Life Technology) for 45 min, followed by 2 washes in HEPES buffer (Gibco). Fluorescence images at excitation/emission wavelengths of 360/460 nm and 470/525 nm were taken immediately using a 400 nm dichroic mirror (KEYENCE). The ratio of fluorescence intensities (F360/470) were measured and calculated manually using ImageJ for each cell. The average pH from measuring 5 cells from each of three wells for each treatment group in both HeLa and N27-A cells was calculated by fitting the F360/470 values to a plotted pH calibration curve with KCl/NaCl buffered from pH 3.5 to 7.0 using GraphPad Prism (Version 8.0.2).

[4] = tested on: N27-A cells; experiment: Lysosomal pH detection, LysoSensor, N27-A cells; type: cell-based, rat
Protocol: as §1

[5] = tested on: AAV-αSyn-induced male mice; experiment: pS129 αSyn+ cells in SNpc, AAV-αSyn-induced mice; type: in vivo, mouse; details: αSynWT-mice
Excerpt: Adeno-associated viruses (AAVs) expressing GFP only or αSyn (wild-type or A53T) were kindly provided by Dr. Yoon Seong Kim from the University of Central Florida. Recombinant AAV vectors were produced using modified pAAV-IRES-hrGFP (Agilent) to express wild-type and mutant human αSyn under control of the CMV promoter. Viral particles (AAV2) were produced at the University of Iowa Viral Vector Core according to standard operating procedures (https://medicine.uiowa.edu/vectorcore/). […] AAV vectors were delivered into the substantia nigra unilaterally by stereotaxic surgery.
Images were acquired using a KEYENCE microscope and quantified as the number or optical density of immunoreactive cells using ImageJ software.
The numbers of TH^+ DA neurons, NeuN^+ neurons, pS129 αSyn^+ cells in the SN and Iba-1^+ microglia in the SN and striatum were stereologically counted in six coronal sections (30 µm thickness) taken every 6th section (180 µm intervals) for each brain. The boundaries of the SN and striatum were delimited at low magnification (4X) to estimate each total area. Immunoreactive cells were counted with images taken at high magnification (×40) by a single blinded investigator. The group mean of the total number of immunoreactive cells from each brain was transformed as percentage of the number in the control group (%). For AAV-αSyn-induced mice, the group mean of the total number of cells in the ipsilateral side was transformed as a percentage of that observed in the contralateral side.

## CCN(CC)CCCC(C)Nc1ccnc2cc(Cl)ccc12 (centres unmarked) [CQ, chloroquine]
[1]; Fig. S3f, MPP+, Control, CQ 100 µM, 4A7C-301 1 µM
  LDH release (%): 40.5948% and 42.0584% and 38.5456% and 42.2156%
[1]; Fig. S3f, MPP+, Nurr1 KD, CQ 100 µM, 4A7C-301 1 µM
  LDH release (%): 55.6098% and 56.4684%
[1]; Fig. S3f, MPP+, Nurr1 OE, CQ 100 µM, 4A7C-301 1 µM
  LDH release (%): 26.1572% and 27.9568% and 27.0629%
[1]; Fig. S3d, with MPP+, 1 µM
  LDH release (%): 41.5124% and 43.1347% and 42.8643%
[1]; Fig. S3d, with MPP+, 5 µM
  LDH release (%): 41.2806% and 41.8214% and 41.3965%
[1]; Fig. S3d, with MPP+, 10 µM
  LDH release (%): 39.6197% and 38.7699% and 40.5081%
[1]; Fig. S3d, with MPP+, 50 µM
  LDH release (%): 38.5767% and 38.7312% and 38.1518%
[1]; Fig. S3d, with MPP+, 100 µM
  LDH release (%): 37.1862% and 37.0703% and 38.1905%
[2]; CQ 100 µM, 4A7C-301 1 µM
  OXPHOS capacity reduced by MPP+ (in words): efficiently restored
[2]; Control N27-A cells
  OCR changes after FCCP injection: 8.55 pmol/min/µg protein and 7.31 pmol/min/µg protein and 2.32 pmol/min/µg protein and 23.52 pmol/min/µg protein
[2]; Fig. S1j/k, Control + MPP+, time 2 min
  Seahorse time trace (OCR): 3.66 and 2.51 and 27.76
[2]; Fig. S1j/k, Control + MPP+, time 8 min
  Seahorse time trace (OCR): 3.46 and 2.01 and 20.11
[2]; Fig. S1j/k, Control + MPP+, time 15 min
  Seahorse time trace (OCR): 2.32 and 1.98 and 22.16 and 9.29
[2]; Fig. S1j/k, Control + MPP+, time 21 min
  Seahorse time trace (OCR): 0.27 and 19.75 and 5.17
[2]; Fig. S1j/k, Control + MPP+, time 28 min
  Seahorse time trace (OCR): 0.58 and 1.26 and 17.08 and 5.33
[2]; Fig. S1j/k, Control + MPP+, time 34 min
  Seahorse time trace (OCR): 0.71 and 18.32 and 7.16
[2]; Fig. S1j/k, Control + MPP+, time 41 min
  Seahorse time trace (OCR): 7.58 and 3.41 and 40.6 and 13.72
[2]; Fig. S1j/k, Control + MPP+, time 47 min
  Seahorse time trace (OCR): 6.82 and 3.28 and 39.31
[2]; Fig. S1j/k, Control + MPP+, time 54 min
  Seahorse time trace (OCR): 6.13 and 3.21 and 37.92 and 10.02
[2]; Fig. S1j/k, Control + MPP+, time 61 min
  Seahorse time trace (OCR): 0.03 and 1.24 and 16.5 and 4.04
[2]; Fig. S1j/k, Control + MPP+, time 67 min
  Seahorse time trace (OCR): 0.55 and 1.35 and 12.69 and 5.31
[2]; Fig. S1j/k, Control + MPP+, time 74 min
  Seahorse time trace (OCR): 1.39 and 17 and 5.99
[2]; Fig. S1j, Nurr1 OE + MPP+, time 2 min
  Seahorse time trace (OCR): 26.25 and 15.29
[2]; Fig. S1j, Nurr1 OE + MPP+, time 8 min
  Seahorse time trace (OCR): 18.52 and 15.98
[2]; Fig. S1j, Nurr1 OE + MPP+, time 15 min
  Seahorse time trace (OCR): 20.57 and 30.55 and 13.93
[2]; Fig. S1j, Nurr1 OE + MPP+, time 21 min
  Seahorse time trace (OCR): 5.95 and 6.99 and 4.75 and 6.7
[2]; Fig. S1j, Nurr1 OE + MPP+, time 28 min
  Seahorse time trace (OCR): 5.18 and 6.25 and 5.44 and 7.19
[2]; Fig. S1j, Nurr1 OE + MPP+, time 34 min
  Seahorse time trace (OCR): 4.78 and 5.8 and 5.34 and 7.96
[2]; Fig. S1j, Nurr1 OE + MPP+, time 41 min
  Seahorse time trace (OCR): 28.78 and 44.27 and 30.42
[2]; Fig. S1j, Nurr1 OE + MPP+, time 47 min
  Seahorse time trace (OCR): 28.4 and 36.09 and 14.17
[2]; Fig. S1j, Nurr1 OE + MPP+, time 54 min
  Seahorse time trace (OCR): 26.28 and 35.06 and 18.57 and 28.22
[2]; Fig. S1j, Nurr1 OE + MPP+, time 61 min
  Seahorse time trace (OCR): 4.76 and 5.21 and 0.65 and 4.3
[2]; Fig. S1j, Nurr1 OE + MPP+, time 67 min
  Seahorse time trace (OCR): 4.21 and 5.44 and 0.96 and 4.79
[2]; Fig. S1j, Nurr1 OE + MPP+, time 74 min
  Seahorse time trace (OCR): 4.26 and 6.26 and 5.01
[2]; Fig. S1k, Nurr1 KD + MPP+, time 2 min
  Seahorse time trace (OCR): 19.09 and 7.42 and 5.75 and 10.38
[2]; Fig. S1k, Nurr1 KD + MPP+, time 8 min
  Seahorse time trace (OCR): 18.47 and 7.53 and 4.86 and 8.38
[2]; Fig. S1k, Nurr1 KD + MPP+, time 15 min
  Seahorse time trace (OCR): 15.57 and 7.6 and 4.41 and 7.39
[2]; Fig. S1k, Nurr1 KD + MPP+, time 21 min
  Seahorse time trace (OCR): 1.43 and 1.21
[2]; Fig. S1k, Nurr1 KD + MPP+, time 28 min
  Seahorse time trace (OCR): 13.44 and 8.97 and 1.24
[2]; Fig. S1k, Nurr1 KD + MPP+, time 34 min
  Seahorse time trace (OCR): 8.6
[2]; Control cells
  ATP turnover: 6.76 pmol/min/µg protein and 3.39 pmol/min/µg protein and 1.42 pmol/min/µg protein and 10.68 pmol/min/µg protein
[2]; Nurr1 KD cells
  ATP turnover: 7.63 pmol/min/µg protein and -1 pmol/min/µg protein and 4.86 pmol/min/µg protein and 9.17 pmol/min/µg protein
[2]; Nurr1 OE cells
  ATP turnover: 19.32 pmol/min/µg protein and 24.75 pmol/min/µg protein and 13.77 pmol/min/µg protein and 18.27 pmol/min/µg protein
[2]; Nurr1 KD N27-A cells
  OCR changes after FCCP injection: 12.59 pmol/min/µg protein and 4.43 pmol/min/µg protein and 9.84 pmol/min/µg protein and 17.76 pmol/min/µg protein
[2]; Nurr1 OE N27-A cells
  OCR changes after FCCP injection: 24 pmol/min/µg protein and 37.47 pmol/min/µg protein and 12.22 pmol/min/µg protein and 23.73 pmol/min/µg protein
[3]; HeLa, BafA1 10 nM, CQ 20 µM, 4A7C-301 1 µM
  lysosomal pH (in words): significantly increased
[3]; Supplementary Figure S7d, individual replicates
  Lysosomal pH: 5.589 and 4.742 and 6.013 and 6.078 and 6.11 and 5.947 and 5.068 and 6.501 and 6.208 and 6.469 and 5.524 and 5.98 and 6.534 and 5.556
[4]; Figure 3d, individual replicates
  Lysosomal pH: 4.937 and 5.068 and 5.133 and 5.85 and 5.426 and 5.296 and 5.622 and 4.4486 and 5.263 and 4.481 and 5.947
[4]; N27-A, BafA1 10 nM, CQ 20 µM, 4A7C-301 1 µM
  lysosomal pH (in words): significantly increased
[5]
  phosphorylated αSyn (αSynS129) in SN (in words): significantly diminished
